From patent US20230126310A1 (priority 2020, published 2023)

Tested on: SARS-CoV-2
Details: 10 µM

Compound | % Inh. (% Inhibition of SARS-CoV-2) [%]
Fc1ccc(Cl)cc1-c1nc(Nc2ccncc2)c2nccnc2n1 [SD-208] | 55.1
Cc1c(NC(=O)OC[C@@H]2COCCN2)cn2ncnc(Nc3ccc4c(cnn4Cc4cccc(F)c4)c3)c12 [BMS-599626] | 76.4
O=C(Nc1ccccc1)N1CCC(Cc2cnc3ccccc3c2)CC1 [PF-750] | 85.2
O=C(NC1CCN(Cc2ccccc2)CC1)c1ccc(I)cc1 [4-IBP] | 89.9
O=C(CNC(=O)c1cccc(C(F)(F)F)c1)N[C@@H]1CCN(Cc2ccc(Cl)cc2)C1 [Teijin-compound-1] | 85.7
Fc1ccc(CNc2ncnc3ccc(F)cc23)cc1 [spautin-1] | 92.1
O=C(NCCCCCCNC(=O)ON=C1CCCCC1)ON=C1CCCCC1 [RHC-80267] | 63.9
CCC(C)C1O[C@]2(C=C[C@@H]1C)C[C@@H]1CC(C/C=C(\C)[C@@H](OC3C[C@H](OC)[C@@H](OC4C[C@H](OC)[C@@H](O)[C@H](C)O4)[C@H](C)O3)[C@@H](C)/C=C/C=C3\COC4[C@H](O)C(C)=CC(C(=O)O1)[C@]34O)O2 (stereo partly drawn) [ABAMECTIN (avermectin B1a)] | 108.9
CCCCN1[C@@H]2CC[C@H]1CC(OC(c1ccc(F)cc1)c1ccc(F)cc1)C2 (stereo partly drawn) [JHW-007] | 93.1
COc1ccc(CNC(=O)Nc2ncc([N+](=O)[O-])s2)cc1 [AR-A014418] | 82.3
CCOc1cc(C(C)(C)C)ccc1C1=N[C@@](C)(c2ccc(Cl)cc2)[C@@](C)(c2ccc(Cl)cc2)N1C(=O)N1CCN(CCCS(C)(=O)=O)CC1 [RG7112 (RO5045337)] | 88.5
c1cncc(CN2CCC(n3ncc4c(N5CCOCC5)nc(-c5ccc6[nH]ccc6c5)nc43)CC2)c1 [WAY-600] | 99.1
CCOc1ccc(Nc2nc(-c3c(C)nc4ccccn34)cs2)cc1 [JK-184] | 65.2
COc1ccc2[nH]c3c(-c4cccc5ccccc45)nccc3c2c1 [SP-141] | 68.6
COc1cc(SC)ccc1C(=O)N1CCC(Cc2ccccc2)CC1 [JX-401] | 71.2
COc1ccccc1C(=O)Nc1cccc(NC(=O)c2cccc(C)c2)c1 [ML-365] | 92.7
OCCCNc1cc(-c2ccnc(Nc3cccc(Cl)c3)n2)ccn1 [CGP-60474] | 54.4
CC(C)(C)Nc1nc(Nc2ccc(C(N)=O)cc2)cc(N)c1C#N [TC-Mps1-12] | 65.3
CC[N+](C)(CC)CCC[n+]1c(-c2ccccc2)c2cc(N)ccc2c2ccc(N)cc21.[I-].[I-] [propidium-iodide] | 69.7
O=C(Nc1ccc(S(=O)(=O)C(F)(F)F)cc1)C1=CCN(c2ncccc2C(F)(F)F)CC1 [A-784168] | 60.3
C[C@H](NC(=O)c1sccc1OCc1ccc(Cl)cc1)c1ccccc1 [AS-1949490] | 103.1
COc1ccc(C(=O)N2CCCc3cc(C4=NNC(=O)SC4C)ccc32)cc1OC (stereo not drawn) [EMD-53998] | 79.6
Cc1[nH]nc2ccc(-c3cncc(OC[C@@H](N)Cc4ccccc4)c3)cc12 [A-674563] | 53.3
CO[C@@H](C)Cn1c(=O)n(C)c2cnc3ccc(-c4cncc(C(C)(C)O)c4)cc3c21 [LY3023414] | 92.7
hemin | 62.9

Compound | % Inh. (% Inhibition of SARS-CoV-2) [%]
N#Cc1ccc(N2N=C3c4ccc(C(=O)O)cc4CC[C@@H]3[C@@H]2C2CCCC2)cc1Cl [PF-03882845] | 58.6
c1ccc(C(NCc2cccnc2)(c2ccccc2)c2ccccc2)cc1 [UCL-2077] | 70.7
COc1ccc(-c2csc(NC(=O)[C@H]3CCCCN3S(=O)(=O)c3ccc(C)cc3)n2)cc1 [ML-277] | 99.3
TC-I-2014 | 97.8
CN(C)C(=O)c1ccc(S(=O)(=O)c2ccc(NC(=O)[C@@](C)(O)C(F)(F)F)c(Cl)c2)cc1 [AZD7545] | 82.4
CN([C@@H](Cc1ccc(OS(=O)(=O)c2cccc3cnccc23)cc1)C(=O)N1CCN(c2ccccc2)CC1)S(=O)(=O)c1cccc2cnccc12 [KN-62] | 96.5
NC1(Cc2ccc(Cl)cc2)CCN(c2ncnc3[nH]ccc23)CC1 [CCT128930] | 86.7
CC(CNS(=O)(=O)C(C)C)c1ccc(-c2ccc(C#N)cc2)cc1 (stereo not drawn) [LY-404187] | 80.4
COCc1c(-c2ccc(NC(=O)Nc3cc(C(F)(F)F)ccc3F)c(F)c2)c2c(N)ncnn2c1CN1CCOCC1 [ACTB-1003] | 97.7
O=C1NC(=O)c2cc(Nc3ccc(F)cc3)c(Nc3ccc(F)cc3)cc21 [CGP-53353] | 86.1
Cc1ccnc(NC(=O)C(C)c2cccc(C(=O)c3ccccc3)c2)c1 (stereo not drawn) [piketoprofen] | 72.4
C[C@@H]1COCCN1c1cc(C2(S(C)(=O)=O)CC2)nc(-c2cccc3[nH]ccc23)n1 [AZ20] | 100.0
CCc1c2c(nc3ccc(O)cc13)-c1cc3c(c(=O)n1C2)COC(=O)[C@]3(O)CC [SN-38] | 79.2
Cc1ccc(NC(=O)C(C)C)cc1C1CCN(Cc2ccc(Oc3ccc(F)c(F)c3)cc2)CC1 [SNAP-94847] | 91.4
Cc1cc(=O)oc2c(C=O)c(O)ccc12 [4-mu-8C] | 106.2
CC(C)(C)c1cc(C(=O)/C(C#N)=N/Nc2cccc(Cl)c2)no1 [ESI-09] | 78.0
Cc1cc(/C=C2\SC(=O)N(c3ccccc3)C2=O)c(C)n1-c1cccnc1 [iCRT-14] | 82.5
CCCCC1CCC(c2nc(-c3ccncc3)no2)CC1 (stereo not drawn) [PSN-375963] | 83.9
CCC(=O)N1CCN(c2ccc(-n3c(=O)ccc4cnc5ccc(-c6cnc7ccccc7c6)cc5c43)cc2C(F)(F)F)CC1 [Torin 1] | 75.3
COc1cc(Br)c(Nc2nc(-c3c(C)nc4ncccn34)cs2)c(Br)c1 [PTC-209] | 103.6
Cc1ccc(-c2nn(C(C)(C)C)c3ncnc(N)c23)cc1 [PP-1] | 121.9
SNS-314 methanesulfonate | 81.4
CC(C)(O)c1ccn2c(-c3ccc(F)c(-c4ccc(F)cc4C#N)c3)cnc2c1F [TP-003] | 100.8
c1cc2c(cc1C1CCCCC1)c1c3n2CCNC3CCC1 (stereo not drawn) [tetrindole] | 75.2
Nc1nc(OCC2CCCCC2)c2[nH]cnc2n1 [NU-2058] | 51.9

Compound | % Inh. (% Inhibition of SARS-CoV-2) [%]
Cc1nc(C#Cc2ccnc(Cl)c2)c(C)n1-c1ccc(OC(F)(F)F)cc1 [CTEP (RO4956371)] | 59.7
CC(C)(C)c1cc(O)c(C(C)(C)C)cc1O [BHQ] | 50.6
CCc1ccccc1OC[C@@H](O)CN[C@H]1CCCc2ccccc21 [SR-59230A] | 57.3
Cc1ccccc1C(=O)c1ccc(Nc2ccc(Br)cc2N)cc1Cl [EO-1428] | 66.1
COc1cc2c(cc1OC)CN(C(=O)[C@@H](NCc1ccncc1)C(C)(C)C)CC2 [TCS-OX2-29] | 52.7
O=C(Nc1ccccc1Br)N[C@@H]1CCN(c2ccc(C(F)(F)F)cn2)C1 [SB705498] | 64.6
COC(=O)C1=C(C)NC(C)=C(C(=O)OCCSc2ccccc2)C1C (stereo not drawn) [PCA-4248] | 55.3
GSK9027 | 64.1
CC(=O)[C@@]12O[C@](C)(c3ccccc3)O[C@@H]1C[C@H]1[C@@H]3CCC4=CC(=O)CC[C@]4(C)[C@H]3CC[C@@]12C [algestone-acetophenide] | 96.0
CSc1nc(-c2ccnc(NC(C)c3ccccc3)c2)c(-c2ccc(F)cc2)[nH]1 (stereo not drawn) [ML-3403] | 50.3
CCCCCCCCCCCCCCCc1cccc(OCC(=O)NCCO)c1 [PDP-EA] | 65.3
CCCCCC(O)c1cccc(OCc2ccc3ccccc3n2)c1 [REV-5901/L-655,238] | 113.5
Nc1[nH]nc2nnc(-c3c(-c4ccccc4)nn4ccccc34)cc12 [FR-180204] | 58.8
Afatinib (dimaleate) | 60.2
Cc1cc(N2CCOCC2)ccc1Nc1nc(NC2CCCCC2)c2[nH]cnc2n1 [MPI-0479605] | 61.2
C=C1/C(=C\C=C2/CCC[C@]3(C)[C@@H]([C@H](C)/C=C/[C@H](C)C(C)(C)O)CC[C@@H]23)C[C@@H](O)C[C@@H]1O [Ercalcitriol] | 86.9
COc1ccc(CC2NCCc3c2[nH]c2ccc(C)cc32)c(Cl)c1OC (stereo not drawn) [LY266097] | 89.3
COc1ncc2cc(C(=O)Nc3cc(C(=O)NCc4cccc(Cl)c4)ccc3Cl)c(=O)[nH]c2n1 [TC-S-7004] | 77.3
NC(=O)N/N=C/c1ccc(Oc2ccc(F)cc2)cc1 [co-102862] | 55.2
CN1C/C=C/CCOc2cccc(c2)-c2ccnc(n2)Nc2cccc(c2)C1 [SB1317] | 56.5
COc1cc2cc(c1Cl)N(C)C(=O)C[C@H](OC(=O)C(C)C)[C@]1(C)O[C@@H]1[C@H](C)[C@@H]1C[C@@](O)(NC(=O)O1)[C@H](OC)/C=C/C=C(\C)C2 [Ansamitocin P-3] | 62.6
verteporfin | 139.9
CC(=O)O[C@H]1C[C@H](O[C@H]2[C@@H](O)C[C@H](O[C@H]3[C@@H](O)C[C@H](O[C@H]4CC[C@@]5(C)[C@H](CC[C@@H]6[C@@H]5C[C@@H](O)[C@]5(C)[C@@H](C7=CC(=O)OC7)CC[C@]65O)C4)O[C@@H]3C)O[C@@H]2C)O[C@H](C)[C@H]1O[C@@H]1O[C@H](CO)[C@@H](O)[C@H](O)[C@H]1O [LANATOSIDE C] | 63.7
COc1cc2nc(C3CC3)nc(N3CCN(c4ccccc4OC)CC3)c2cc1OC [ML314] | 87.7
c1ccc2nc(C3=NCCN3)cnc2c1 [BU-239] | 60.1
